Data taken from PMC11612555, “Impact of camel milk lactoferrin peptides against breast cancer cells: in silico and in vitro study” (Frontiers in Pharmacology, 2024).
≈ marks a conversion by molar mass, not a printed value. Read-outs that look alike come from different tables or passages of the source. Ends that are not written are not given here. Peptide text beside a SMILES is read from it.

Assays:
HDFa cells = assay: MTT assay on HDFa normal cells, 48 h; type: cell-based, human; settings: for IC50 Value: mean ± SD
Method: DMEM medium supplemented with 10% fetal bovine serum (FBS) and 1% penicillin-streptomycin (10,000 U/mL) (complete media) was prepared to culture MCF-7 and HDFa cells in T25 flasks at 37°C in a CO2 incubator. Once the cells had adhered and grown to 70%–90% confluence within 24–48 h, they were transferred to new flasks. 2 mL of 0.25% trypsin was added to detach the cells, which were then incubated for 5 min at 37°C. The trypsin activity was stopped by adding 2 mL of complete media. The detached cells were collected into a tube and centrifuged at 1,500 rpm for 5 min. After removing the supernatant, 3 mL of media was added to resuspend the cell pellet. 20 μL of suspended cells were mixed with 20 µL of 0.4% trypan blue for staining and cell counting. 100 μL of suspended cells in complete media, containing approximately 10^4 cells, were added to each well of a 96-well plate and incubated for 24 h to allow cell attachment. Peptides (PEP20, PEP24, PEP63, PEP66, PEP67, and PEP74) at various concentrations (200, 100, 50, 25, 12.5, 6.25 μg/mL) were then added to the media in each well. Each concentration was repeated three times. After a 48-h incubation period at 37°C, the peptide-treated medium was replaced with 100 µL of 0.5 mg/mL MTT and incubated for 4 h at 37°C in the dark. Following removal of the MTT and addition of 100 µL of DMSO, the absorbance of each well in the 96-well plate was measured at 595 nm using an ELISA reader (Bio-RAD microplate reader, Japan) ([Ali et al., 2018]; [Salim et al., 2022]).
The percentage viability was calculated by multiplying the absorbance of treated cells by 100 and dividing the absorbance of untreated cells. The viability of untreated cells is considered 100%. The each concentration of each peptide and cisplatin was repeated triplicate. The unite of cell viability and IC50 are percentage and μg/mL. The viability and IC50 of the treated cells are expressed as the mean ± standard deviation (SD). GraphPad Prism software (version 9.0, San Diego, CA, United States) was used to calculate the IC50 values of the peptides, […], and their combination.

MCF-7 cells = tested on: MCF-7 cells; parameters: % of inhibition of MCF-7: dose or concentration left out as unconfirmed; settings: for IC50 Range / IC50 Value: MCF-7, MTT; for IC50 Value: mean ± SD
Method: DMEM medium supplemented with 10% fetal bovine serum (FBS) and 1% penicillin-streptomycin (10,000 U/mL) (complete media) was prepared to culture MCF-7 and HDFa cells in T25 flasks at 37°C in a CO2 incubator. Once the cells had adhered and grown to 70%–90% confluence within 24–48 h, they were transferred to new flasks. 2 mL of 0.25% trypsin was added to detach the cells, which were then incubated for 5 min at 37°C. The trypsin activity was stopped by adding 2 mL of complete media. The detached cells were collected into a tube and centrifuged at 1,500 rpm for 5 min. After removing the supernatant, 3 mL of media was added to resuspend the cell pellet. 20 μL of suspended cells were mixed with 20 µL of 0.4% trypan blue for staining and cell counting. 100 μL of suspended cells in complete media, containing approximately 10^4 cells, were added to each well of a 96-well plate and incubated for 24 h to allow cell attachment. […] Each concentration was repeated three times. After a 48-h incubation period at 37°C, the peptide-treated medium was replaced with 100 µL of 0.5 mg/mL MTT and incubated for 4 h at 37°C in the dark. Following removal of the MTT and addition of 100 µL of DMSO, the absorbance of each well in the 96-well plate was measured at 595 nm using an ELISA reader (Bio-RAD microplate reader, Japan) ([Ali et al., 2018]; [Salim et al., 2022]).
The percentage viability was calculated by multiplying the absorbance of treated cells by 100 and dividing the absorbance of untreated cells. The viability of untreated cells is considered 100%. The each concentration of each peptide and cisplatin was repeated triplicate. The unite of cell viability and IC50 are percentage and μg/mL. The viability and IC50 of the treated cells are expressed as the mean ± standard deviation (SD). GraphPad Prism software (version 9.0, San Diego, CA, United States) was used to calculate the IC50 values of the peptides, mitotane, and their combination.

[1] = IC50 of HDFa related to IC50 of MCF-7

Row | Compound | IC50 Range (HDFa cells) [µg/mL] | SI (selectivity index) (MCF-7 cells; [1]) | IC50 Range (MCF-7 cells; 48 h) [µg/mL] | IC50 Value (MCF-7 cells; 48 h) [µg/mL] | further results
1 | N.N.[Cl][Pt][Cl] [Cisplatin, reference compound] | 5.650 to 7.856 | 1.565 | 3.581 to 5.055 | 4.255 ± 0.738 | IC50 Value (HDFa cells): 6.663 ± 1.10 µg/mL; IC50 Value (HDFa cells; listed as cisplatin): 6.66 µg/mL; IC50 Value (MCF-7 cells; 48 h, listed as cisplatin): 4.25 µg/mL
2 | CSCC[C@H](NC(=O)[C@H](CC(C)C)NC(=O)[C@H](Cc1ccccc1)NC(=O)[C@H](C)NC(=O)[C@H](CS)NC(=O)[C@H](C)NC(=O)[C@H](CCC(=O)O)NC(=O)[C@H](CC(C)C)NC(=O)[C@H](CC(C)C)NC(=O)[C@@H]1CCCN1C(=O)[C@H](CO)NC(=O)[C@@H](NC(=O)[C@H](CO)NC(=O)[C@@H](N)CS)[C@@H](C)O)C(=O)N[C@@H](CCCNC(=N)N)C(=O)O [PEP66, CSTSPLLEACAFLMR] (H-CSTSPLLEACAFLMR-OH; N-terminus and C-terminus assumed) | 137.2 to 206.9 | 3.19 | 46.73 to 59.71 | 52.82 ± 6.49 (≈ 32.2 µM) | % of inhibition of MCF-7 (MCF-7 cells; concentration (Figure 6)): 76.90%; percentage of MCF7 inhibition (MCF-7 cells; dose of 200 μg/mL): 77%
3 | LFFPALLSLGALGLCLAASK [PEP67] |  |  |  |  | SI (selectivity index) (MCF-7 cells): 0.6
4 | PWNHIKRYF [PEP24, PWNHIKRYF] |  |  |  |  | IC50 (MCF-7 cells; 48 h): > 200 µg/mL
